Experimental data from ChEMBL document CHEMBL5104092, “An insight into the recent development of the clinical candidates for the treatment of malaria and their target proteins” (Eur J Med Chem, 2021).
≈ marks a conversion by molar mass, not a printed value.

Key:
[1] = tested on: Plasmodium falciparum; test: Antimalarial activity against Plasmodium falciparum NF54; assay type: functional, organism-based
[2] = tested on: L6; test: Cytotoxicity against rat L6 cells; assay type: functional, cell-based
[3] = tested on: Plasmodium falciparum; test: In vivo antimalarial activity against Plasmodium falciparum infected in SCID mouse; assay type: functional
[4] = Dissociation constant, pKa of compound; assay type: physicochemical
[5] = tested on: Plasmodium falciparum; test: Antimalarial activity against Plasmodium falciparum K1; assay type: functional, organism-based
[6] = Inhibition of Plasmodium flaciparum 3D7_2 membrane recombinant ATP4 expressed in Escherichia coli BL21 (DE3) cells; design: species or system Plasmodium falciparum
[7] = Selectivity ratio of IC50 for Plasmodium falciparum B7 membrane recombinant Na+ dependent ATPase activity to IC50 for Plasmodium falciparum 3D7_2 membrane recombinant Na+ dependent ATPase activity
[8] = Inhibition of Plasmodium flaciparum B7 membrane recombinant ATP4 expressed in Escherichia coli BL21 (DE3) cells; design: species or system Plasmodium falciparum
[9] = Inhibition of Plasmodium vivax PI4K
[10] = target: CYP450 (Homo sapiens, UniProt P04798+P05177+P05181+P08684+P10632+P10635+P11509+P11712+P13584+P20813+P20815+P20853+P24462+P24903+P33260+P33261+P51589+P78329+P98187+Q02928+Q08477+Q16678+Q16696+Q5TCH4+Q6VVX0+Q7Z449+Q8TAV3+Q96SQ9+Q9HB55); test: Inhibition of CYP450 (unknown origin); assay type: ADME, protein assay
[11] = Drug elimination in human urine assessed as unchanged fraction; assay type: ADME; conditions: read-out: Drug excretion
[12] = Toxicity in Swiss mouse infected with Plasmodium yoelii N-67 assessed as survival rate at 12.5 mg/kg, po measured on day 4 relative to control; assay type: organism-based; conditions: in vivo, time 4 day, read-out: Activity
[13] = tested on: Plasmodium yoelii; test: In vivo antimalarial activity against Plasmodium yoelii N-67 infected in Swiss mouse assessed as reduction in parasitemia level at 12.5 mg/kg, po measured on day 4 relative to control; assay type: functional; design: scale not given: the % may be the effect or the level left; conditions: time 4 day
[14] = tested on: Plasmodium falciparum; test: Antiplasmodial activity against chloroquine resistant Plasmodium falciparum K1 incubated for 72 hrs by malaria SYBR green I nucleic acid staining dye based fluorescence assay; assay type: functional, organism-based; conditions: K1, 72 h
[15] = tested on: Plasmodium falciparum; test: Antiplasmodial activity against chloroquine sensitive Plasmodium falciparum 3D7 incubated for 72 hrs by malaria SYBR green I nucleic acid staining dye based fluorescence assay; assay type: functional, organism-based; conditions: 3D7, 72 h
[16] = tested on: Plasmodium falciparum; test: Antimalarial activity against chloroquine sensitive Plasmodium falciparum NF54 incubated for 48 hrs by SYBR green I fluorescence based assay; assay type: functional, organism-based; conditions: NF54, 48 h
[17] = tested on: Plasmodium falciparum; test: Antimalarial activity against chloroquine resistant Plasmodium falciparum K1 incubated for 48 hrs by SYBR green I fluorescence based assay; assay type: functional, organism-based; conditions: K1, 48 h
[18] = tested on: Plasmodium falciparum; test: Antimalarial activity against chloroquine resistant Plasmodium falciparum Dd2 incubated for 48 hrs by SYBR green I fluorescence based assay; assay type: functional, organism-based; conditions: Dd2, 48 h
[19] = tested on: Plasmodium falciparum; test: Antimalarial activity against chloroquine resistant Plasmodium falciparum W2 incubated for 48 hrs by SYBR green I fluorescence based assay; assay type: functional, organism-based; conditions: W2, 48 h
[20] = Inhibition of Plasmodium falciparum DHODH
[21] = Binding affinity to Plasmodium falciparum quadruple mutant DHFR assessed as inhibition constant
[22] = tested on: Plasmodium berghei; test: In vivo antimalarial activity against Plasmodium berghei infected in SCID mouse; assay type: functional
[23] = tested on: Plasmodium falciparum; test: Antimalarial activity against chloroquine-sensitive Plasmodium falciparum W2 assessed as parasitic LDH activity incubated for 72 hrs by malstat reagent method; assay type: functional, organism-based; conditions: W2, 72 h
[24] = Cytotoxicity against African green monkey Vero cells; assay type: toxicity, cell-based, Chlorocebus sabaeus
[25] = tested on: Plasmodium falciparum; test: Antimalarial activity against chloroquine-sensitive Plasmodium falciparum D6 assessed as parasitic LDH activity incubated for 72 hrs by malstat reagent method; assay type: functional, organism-based; conditions: D6, 72 h
[26] = tested on: Plasmodium falciparum; test: Antimalarial activity against chloroquine-sensitive Plasmodium falciparum 3D7 by Giemsa staining method; assay type: functional, organism-based
[27] = tested on: Plasmodium yoelii nigeriensis; test: In vivo antimalarial activity against Plasmodium yoelii nigeriensis infected in Swiss mouse; assay type: functional
[28] = tested on: Plasmodium falciparum; test: Antimalarial activity against Plasmodium falciparum 3D7; assay type: functional, organism-based
[29] = Inhibition of Plasmodium falciparum recombinant DHODH incubated for 5 mins by microplate reader method
[30] = tested on: Plasmodium berghei; test: In vivo antimalarial activity against Plasmodium berghei infected in mouse administered po for 4 days by Peters 4 day test; assay type: functional; conditions: 96 h
[31] = Elimination half life in mouse blood at 16 mg/kg, po measured upto 28 days by LC-MS analysis; assay type: ADME, organism-based; conditions: time < 28 day, read-out: LambdaZ (converted)
[32] = Cmax in mouse blood at 16 mg/kg, po measured upto 28 days by LC-MS analysis; assay type: ADME, organism-based; design: time < 28 day, dose 16 mg/kg, route po
[33] = tested on: Plasmodium falciparum; test: Antimalarial activity against multidrug resistant Plasmodium falciparum W2 after 48 hrs in presence of [3H] hypoxanthine; assay type: functional, organism-based
[34] = tested on: Plasmodium falciparum; test: Antimalarial activity against multidrug resistant Plasmodium falciparum MRA1240 after 48 hrs in presence of [3H] hypoxanthine; assay type: functional, organism-based
[35] = tested on: Plasmodium falciparum; test: Antimalarial activity against multidrug resistant Plasmodium falciparum MRA1239 after 48 hrs in presence of [3H] hypoxanthine; assay type: functional, organism-based
[36] = tested on: Plasmodium falciparum; test: Antimalarial activity against multidrug resistant Plasmodium falciparum TM90-C2B after 48 hrs in presence of [3H] hypoxanthine; assay type: functional, organism-based

CC(=O)N1CCN(c2ccc(CN(C(=O)/C=C/c3ccc(C(F)(F)F)cc3)[C@@H](Cc3ccccc3)C(=O)N3CCN(Cc4ccc(N(C)CCO)cc4)CC3)cc2)CC1
IC50 [1]: 10 nM
IC50 [2]: 8850 nM
ED90 [3]: 8.4 mg/kg
pKa [4]: 7.5
IC50 [5]: 0.46 nM

CCC(CC)Nc1nc(C)c(C#N)c2ccccc12
IC50 [6]: 70 nM
Ratio IC50 [7]: 6
IC50 [8]: 429 nM

CS(=O)(=O)c1ccc(-c2cnc(N)c(-c3ccc(C(F)(F)F)nc3)c2)cc1 [MMV-048]
IC50 [9]: 3.4 nM
ED90 [3]: 0.57 mg/kg

FC1CCN(CCOc2ccc(C3CCC4(CC3)OOC3(OO4)C4CC5CC(C4)CC3C5)cc2)CC1 (centres undefined)
IC50 [1]: 5.2 nM
ED90 [3]: 11 mg/kg
pKa [4]: 8.4
IC50 [10]: > 20000 nM
IC50 [5]: 4.2 nM

COc1cc(NC(C)CCCN)c2ncccc2c1 (centres undefined) [PRIMAQUINE]
dose excreted [11]: < 1%

CCC1CCN(CC(CC(C)C)Nc2ccnc3cc(Cl)ccc23)CC1 (centres undefined)
survival at 96 h [12]: 100%
Activity [13]: 100%
IC50 [14]: 97.8 nM
IC50 [15]: 57 nM

C[C@H]1[C@H](Nc2ccc(F)cc2)O[C@@H]2O[C@]3(C)CC[C@H]4[C@H](C)CC[C@@H]1[C@@]24OO3
IC50 [16]: 1.3 nM
IC50 [17]: 0.6 nM
IC50 [18]: 11.1 nM
IC50 [19]: 3 nM

NN1CN(c2ccc3ccccc3c2)C2=C(C(=O)CO2)C1=O
IC50 [20]: 23 nM

O=C(c1ccc(OC[C@H](O)Cn2ncnn2)cc1)N1CC[C@H](c2ccc(F)cc2)C1
pKa [4]: 12.6

CCc1nc(N)nc(N)c1OCCCOc1ccccc1CCC(=O)O
pKa [4]: 4.5
Ki [21]: 0.54 nM

Nc1ncc(-c2ccc(C(=O)N3CCNCC3)cc2)nc1-c1ccc(C(F)(F)F)cc1
IC50 [1]: 5.4 nM
IC50 [9]: 23 nM
pKa [4]: 8.1
ED90 [22]: 0.25 mg/kg
IC50 [5]: 4.7 nM

c1cc(N2CCOCC2)nc(NCCNc2nc(N3CCOCC3)nc(N3CCOCC3)n2)n1
IC50 [23]: 1320 nM
IC50 [24]: > 10100 nM
IC50 [25]: 1180 nM

CNNc1nc(NNC)nc(Nc2nc(-c3ccc(Cl)cc3Cl)cs2)n1
IC50 [26]: 10 µg/mL (≈ 24.3 µM)

CCN(CC)CCCC(C)Nc1cc(OC)cc2cccnc12 (centres undefined) [PAMAQUINE]
dose excreted [11]: < 1%

COc1cc(NCCCCCNC(C)C)c2ncccc2c1 [PENTAQUINE]
dose excreted [11]: < 1%

COc1cc(NCCCC(C)N)c2ncccc2c1 (centres undefined) [QUINOCIDE]
dose excreted [11]: < 1%

Cc1nc(Nc2ncc(N3CCN(C)[C@H](C)C3)c(Nc3cc(C)n(C)n3)n2)cc(C2CC2)c1F [SUTIDIAZINE]
IC50 [1]: 9 nM
pKa [4]: 8.4
IC50 [5]: 15 nM

C=C(c1ccc(OC(C)(C)COC(=O)CCC(=O)O)cc1)C1COC2(OO1)C1CC3CC(C1)CC2C3 (centres undefined)
ED90 [27]: 18.3 mg/kg
pKa [4]: 4
IC50 [28]: 49 nM

c1c2c(cc3c1OCO3)-c1cc3ccc4c(c3c[n+]1CC2)OCO4 [COPTISINE]
IC50 [29]: 1830 nM

CN(C(=S)NN=C(c1ccccn1)c1ccccn1)c1ccccc1
ED50 [30]: 1.2 mg/kg/day
half-life [31]: 48.7 h
Cmax [32]: 1880 ng/mL
EC50 [33]: 6.2 nM
EC50 [34]: 9.1 nM
EC50 [35]: 6.9 nM
EC50 [36]: 13 nM
